# Data published in PMC9046208, “Foldamers reveal and validate therapeutic targets associated with toxic α-synuclein self-assembly” (Nature Communications, 2022).
# “Also recorded” adds a separate entry of the source.
# Key:
# αS oligomers = target: T1, αS oligomers (Homo sapiens, UniProt P37840); experiment: Gel shift assay of αS supernatant (oligomers); type: biochemical; details: 70 µM αS, 0.1, 0.2, 0.5 mol eq. ligand, 7 days
# T1 construct: made in house; host or cells: Escherichia coli BL21(DE3), periplasm
# Protocol: Supplementary Fig. 8. Gel-shift images of αS (70 µM) incubated in the absence (lane 2) and presence of SK-129 (a) and EGCG (b) at sub-stoichiometric ratios (0.1, 0.2, 0.5 mol eq.) for 7 days at 370C with constant shaking. The solutions of αS in the absence and presence of ligands were centrifuged and the supernatant was used for the gel shift assay. The arrows indicate the formation of various αS structures. The gel shift assay of the supernatant of the αS aggregated […]
# fibers. Most of the αS was found in the supernatant as a mo nomer and a dimer in the presence of […]
# their formation. The gel experiments were conducted at least two times to confirm the reproducibility of the data.
# (1 picture or pasted object on this page, not shown here)
# αS = target: T2, αS (Homo sapiens, UniProt P37840); experiment: Fluorescence polarization titration, SK-129F with WT αS; type: binding
# T2 construct: made in house; host or cells: Escherichia coli BL21(DE3), periplasm
# Protocol: All Fluorescence Polarization (FP) experiments were conducted on a Varian Cary Eclipse fluorometer (Agilent, Santa Clara, CA) equipped with a polarizer. The stock solutions of αS, 1 mM or 100 μM in 1x PBS buffer, were serially added into a solution of 10 μM SK-129F (300 μL in 1x PBS buffer) while stirring in a quartz cuvette (Fireflysci, Staten Island, NY). All FP measurements were conducted in triplicates in 20 mM Tris, 100 mM NaCl, pH 7.2 at 20 °C. The excitation and emissions wavelengths were set at 490 nm and 520 nm, respectively. Each titration was equilibrated for five min before measurements were taken for the next addition of αS solution. The addition of αS solution was continuous until no more change in the FP signal was observed. Similar conditions were used for the titration of various αS mutants and Aβ42 peptide against SK-129F. A stock solution of Aβ42 (1 mM or 100 μM in 1x PBS buffer on ice) was sequentially added to a solution of 10 μM SK-129F (300 μL in 1x PBS buffer) until no more change in the FP signal was observed. The polarization of each point was calculated using Eq. 1:1 FP=I∥−I⊥/I∥+I⊥ Where I∥ is fluorescence intensity parallel to the excitation plane and I⊥ is fluorescence intensity perpendicular to the excitation plane. The plot between the relative change in the FP signal against the concentration of the protein (αS/ Aβ42) was fit using one site binding model and Kd between SK-129F and αS (αS mutants/Aβ42) was extracted from the fit. For displacement titration, a 10 μM SK-129F solution was saturated with 10 mole equivalents of αS (300 μL in 1x PBS buffer). To this solution, a stock solution of SK-129 (1 mM or 10 mM) was serially added to displace SK-129F from the αS-SK-129F complex. The solution of SK-129 was continuously added until no more change in the FP signal was observed. A plot between the relative change in the FP signal against the concentration of SK-129 was fit using a one-site competitive binding model and Kd between SK-129 and αS was extracted from the fit.
# αS1 = target: T3, αS1 (Homo sapiens, UniProt P37840, DEL6-12); experiment: Fluorescence polarization titration, SK-129F with αS1; type: binding; details: FP
# T3 construct: made in house; host or cells: Escherichia coli BL21(DE3), periplasm
# Protocol: (§1) All Fluorescence Polarization (FP) experiments were conducted on a Varian Cary Eclipse fluorometer (Agilent, Santa Clara, CA) equipped with a polarizer. The stock solutions of αS, 1 mM or 100 μM in 1x PBS buffer, were serially added into a solution of 10 μM SK-129F (300 μL in 1x PBS buffer) while stirring in a quartz cuvette (Fireflysci, Staten Island, NY). All FP measurements were conducted in triplicates in 20 mM Tris, 100 mM NaCl, pH 7.2 at 20 °C. The excitation and emissions wavelengths were set at 490 nm and 520 nm, respectively. Each titration was equilibrated for five min before measurements were taken for the next addition of αS solution. The addition of αS solution was continuous until no more change in the FP signal was observed. Similar conditions were used for the titration of various αS mutants and Aβ42 peptide against SK-129F. A stock solution of Aβ42 (1 mM or 100 μM in 1x PBS buffer on ice) was sequentially added to a solution of 10 μM SK-129F (300 μL in 1x PBS buffer) until no more change in the FP signal was observed. The polarization of each point was calculated using Eq. 1:1 FP=I∥−I⊥/I∥+I⊥ Where I∥ is fluorescence intensity parallel to the excitation plane and I⊥ is fluorescence intensity perpendicular to the excitation plane. […]
# αS2 = target: T4, αS2 (Homo sapiens, UniProt P37840, DEL15-23); experiment: Fluorescence polarization titration, SK-129F with αS2; type: binding; details: FP
# T4 construct: made in house
# Protocol: as §1
# αS3 = target: T5, αS3 (Homo sapiens, UniProt P37840, DEL36-45); experiment: Fluorescence polarization titration, SK-129F with αS3; type: binding; details: FP
# T5 construct: Synuclein Residues (1-140); made in house
# Protocol: as §1
# αS4 = experiment: Fluorescence polarization titration, SK-129F with αS4; type: binding; details: FP
# Protocol: as §1
"Kd (αS; FP fit, WT αS, trial 1)","Kd (αS; FP fit, WT αS, trial 2)","Kd (αS; FP fit, WT αS, trial 3)","Kd (αS; FP titration, 10 μM SK-129F with αS, mean ± s.d., n = 3)",binding affinity weaker than WT αS (αS1),binding affinity weaker than WT αS (αS2),binding affinity weaker than WT αS (αS3),binding affinity weaker than WT αS (αS4),Structure (SMILES),αS species in gel shift assay (αS oligomers)
–,–,–,–,–,–,–,–,"O=C(O[C@@H]1Cc2c(O)cc(O)cc2O[C@@H]1c1cc(O)c(O)c(O)c1)c1cc(O)c(O)c(O)c1 [EGCG, Epigallocatechin Gallate]",higher-order toxic oligomers; also recorded: higher-order oligomers were observed
864 nM,791 nM,758 nM,810 ± 90 nM,3–4 fold,3–4 fold,~ 8 fold,> 10 fold,COC(=O)c1cc(OCC(=O)O)c2cccc(NC(=O)c3cc(OC(C)C)c4cccc(NC(=O)c5cc(OCC(=O)O)c6cccc(NC(=O)c7cc(OC(C)C)c8cccc(NC(=S)NCC(=O)Nc9ccc(-c%10c%11ccc(=O)cc-%11oc%11cc(O)ccc%10%11)c(C(=O)O)c9)c8n7)c6n5)c4n3)c2n1 [SK-129F],–
